Laboratory results from ChEMBL document CHEMBL5143549, “Phenothiazine, anthraquinone and related tricyclic derivatives as inhibitors of monoamine oxidase” (Bioorg Med Chem, 2022).

Columns and labels:
[1] = target: T1, Amine oxidase [flavin-containing] A (Homo sapiens, UniProt P21397); test: Inhibition of recombinant human MAO-A expressed in baculovirus infected BTI insect cells using kynuramine as substrate after 20 mins by fluorescence spectrophotometric assay
T1 sequence (P21397 whole entry): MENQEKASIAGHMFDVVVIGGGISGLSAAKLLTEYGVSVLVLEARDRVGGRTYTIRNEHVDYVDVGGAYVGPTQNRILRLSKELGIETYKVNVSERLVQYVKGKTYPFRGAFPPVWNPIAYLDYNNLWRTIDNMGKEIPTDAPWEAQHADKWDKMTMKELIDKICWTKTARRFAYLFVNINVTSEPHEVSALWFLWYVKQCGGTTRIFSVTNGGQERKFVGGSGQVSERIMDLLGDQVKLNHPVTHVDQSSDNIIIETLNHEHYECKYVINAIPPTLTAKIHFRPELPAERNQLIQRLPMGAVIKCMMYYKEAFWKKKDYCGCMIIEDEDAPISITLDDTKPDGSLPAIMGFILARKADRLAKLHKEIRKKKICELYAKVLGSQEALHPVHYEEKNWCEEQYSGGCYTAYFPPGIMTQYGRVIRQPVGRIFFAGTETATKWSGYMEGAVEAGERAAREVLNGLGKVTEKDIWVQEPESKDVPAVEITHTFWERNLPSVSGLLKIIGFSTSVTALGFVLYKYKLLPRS

[2] = target: T2, Amine oxidase [flavin-containing] B (Homo sapiens, UniProt P27338); test: Inhibition of recombinant human MAO-B expressed in baculovirus infected BTI insect cells using kynuramine as substrate after 20 mins by fluorescence spectrophotometric assay
T2 sequence (P27338 whole entry): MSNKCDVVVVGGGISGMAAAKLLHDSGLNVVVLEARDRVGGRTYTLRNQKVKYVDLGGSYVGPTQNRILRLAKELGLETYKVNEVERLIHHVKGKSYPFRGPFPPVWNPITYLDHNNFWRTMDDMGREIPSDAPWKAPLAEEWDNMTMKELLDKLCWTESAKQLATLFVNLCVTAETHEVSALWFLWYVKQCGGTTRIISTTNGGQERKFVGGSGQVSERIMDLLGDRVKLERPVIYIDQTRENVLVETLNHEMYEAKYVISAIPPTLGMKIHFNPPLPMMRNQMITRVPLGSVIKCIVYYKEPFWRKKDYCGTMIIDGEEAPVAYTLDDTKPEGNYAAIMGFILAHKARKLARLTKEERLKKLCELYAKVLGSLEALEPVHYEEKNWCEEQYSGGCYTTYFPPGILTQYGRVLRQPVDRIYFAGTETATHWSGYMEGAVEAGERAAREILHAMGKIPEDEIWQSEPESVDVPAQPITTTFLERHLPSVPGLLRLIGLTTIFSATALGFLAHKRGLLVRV

Homo sapiens = species: Homo sapiens; test: Selectivity index, ratio IC50 for recombinant human MAO-B to IC50 for recombinant human MAO-A
[3] = target: T2, Amine oxidase [flavin-containing] B; test: Inhibition of recombinant human MAO-B expressed in baculovirus infected BTI insect cells using kynuramine as substrate after 20 mins by Lineweaver-Burk plot analysis
[4] = target: T1, Amine oxidase [flavin-containing] A; test: Inhibition of recombinant human MAO-A expressed in baculovirus infected BTI insect cells using kynuramine as substrate after 20 mins by Lineweaver-Burk plot analysis

| Structure (SMILES) | IC50 [1] | IC50 [2] | Ratio IC50 (Homo sapiens) | Ki [3] | Ki [4] |
| --- | --- | --- | --- | --- | --- |
| O=C1C(=O)c2ccccc2-c2ccccc21 [9,10-PHENANTHRENEQUINONE] | 1.92 µM | – | – | – | – |
| Cc1ccc2nc3c(ccc4ccccc43)c(C)c2c1 | 95.1 µM | – | – | – | – |
| OC1c2ccccc2Oc2ccccc21 | 28.4 µM | 92 µM | 3.24 | – | – |
| O=C1c2ccccc2C(=O)c2cnccc21 | 20.2 µM | 4.28 µM | 0.21 | – | – |
| Nc1c2ccccc2nc2ccccc12 [AMINACRINE] | 26 µM | 112 µM | 4.31 | – | – |
| O=C1c2ccccc2C(=O)c2c(O)c(O)cc(O)c21 [PURPURIN] | 7.99 µM | 40.2 µM | 5.03 | – | – |
| O=C1c2ccccc2C(=O)c2ccccc21 [ANTHRAQUINONE] | 122 µM | – | – | – | – |
| Nc1ccc2c(c1N)C(=O)c1ccccc1C2=O | 2.28 µM | 2.41 µM | 1.06 | – | – |
| Nc1c(C(=O)O)c2nc3c(C(=O)O)cccc3oc-2cc1=O [CINNABARINIC ACID] | 45.3 µM | 65 µM | 1.43 | – | – |
| O=C1c2ccc(O)c(O)c2C(=O)c2c(O)ccc(O)c21 [QUINALIZARIN] | 17 µM | – | – | – | – |
| O=C1c2cccc(O)c2C(=O)c2c(O)cc(CO)cc21 [ALOE-EMODIN] | 1.77 µM | 21.9 µM | 12.4 | – | – |
| Clc1c2ccccc2nc2ccccc12 | 12.1 µM | 91.9 µM | 7.6 | – | – |
| O=C1c2ccccc2C(=O)c2c1ccc1c(=O)c3ccccc3[nH]c21 | 85.6 µM | – | – | – | – |
| O=C1c2cccc(O)c2C(=O)c2c(O)cccc21 [DANTHRON] | 10.7 µM | 58.7 µM | 5.49 | – | – |
| Cc1cc(O)c2c(c1)C(=O)c1cc(O)cc(O)c1C2=O [EMODIN] | 4.32 µM | 3.24 µM | 0.75 | – | – |
| c1ccc2c(c1)Cc1ccccc1O2 [XANTHENE] | 24.8 µM | 7.42 µM | 0.32 | – | – |
| COc1ccc2c(c1)Sc1ccc(Cl)cc1N2 | 0.576 µM | 1.34 µM | – | 0.045 µM | – |
| CC1(C)CC(=O)C2=C(C1)C(=O)C1=C(C2)C(=O)CC(C)(C)C1 | 51 µM | – | – | – | – |
| O=C1c2ccccc2C(=O)c2c(O)ccc(O)c21 [QUINIZARIN] | 0.065 µM | 110 µM | 1690 | – | 0.039 µM |
| CN1c2ccccc2Sc2ccccc21 | 24.9 µM | – | – | – | – |
| Nc1ccc(N)c2c1C(=O)c1ccccc1C2=O | 1.06 µM | – | – | – | – |
| Clc1ccc2c(c1)Nc1ccccc1S2 | 1.22 µM | – | – | – | – |
| O=C1c2ccccc2Cc2ccccc21 [ANTHRONE] | 1.89 µM | – | – | – | – |
| O=C1c2cccc(O)c2C(=O)c2cccc(O)c21 [ANTHRARUFIN] | 30.8 µM | – | – | – | – |
| O=c1c2ccccc2oc2ccccc12 [XANTHONE] | 0.623 µM | – | – | – | – |
| O=C1c2ccc(O)cc2C(=O)c2ccc(O)cc21 [ANTHRAFLAVICACID] | 11.5 µM | 5.62 µM | 0.49 | – | – |
